In ChEMBL document CHEMBL5584354, “Impact of Conjugation of the Reactive Oxygen Species (ROS)-Generating Catalytic Moiety with Membrane-Active Antimicrobial Peptoids: Promoting Multitarget Mechanism and Enhancing Selectivity” (J Med Chem, 2024):
Values after ≈ are worked out from the molar mass of the structure shown. Active and inactive are the calls of the source. The calls are words filed in the database; no cut-off is given here. Non-standard residues stand in square brackets, D forms with d. Residues, ends and D or L forms follow the SMILES beside them. Gly(N(CH2)2(3-indolyl)) = O=C(O)CNCCc1c[nH]c2ccccc12; Nspe = C[C@H](NCC(=O)O)c1ccccc1; Nlys = NCCCCNCC(=O)O

Key:
[1] = Hemolytic activity in male Sprague-Dawley rat erythrocytes at 50 uM incubated for 1 hr by absorbance based method relative to control; type: toxicity, cell-based, Erythrocyte; conditions: read-out: Activity
HEK293 = assay: Cytotoxicity against HEK293 cells assessed as cell killing incubated for 24 hrs by MTS assay; type: toxicity, cell-based; conditions: human, hek293, 24 h
RAW264.7 [2] = assay: Antiinflammatory activity in LPS-stimulated mouse RAW264.7 cells assessed as reduction in nitrite production at 10 uM incubated for 16 hrs by ELISA relative to control; type: functional; set-up: scale not given: the % may be the effect or the level left
RAW264.7 [3] = assay: Antiinflammatory activity in LPS-stimulated mouse RAW264.7 cells assessed as reduction in IL-6 production at 10 uM incubated for 16 hrs by ELISA relative to control; type: functional; set-up: scale not given: the % may be the effect or the level left
Cell membrane [4] = assay: Disruption of outer membrane in Escherichia coli ATCC 25922 assessed as increase in absorbance measured every 5 mins for 90 mins by nitrocefin assay; type: cell membranes; conditions: dose 0-25 µM
Klebsiella pneumoniae = assay: Antibacterial activity against carbapenem-resistant Klebsiella pneumoniae NMS118 harboring extended-spectrum beta-lactamase assessed as inhibition of bacterial growth incubated for 24 hrs by broth dilution method; type: functional
RAW264.7 [5] = assay: Antiinflammatory activity in LPS-stimulated mouse RAW264.7 cells assessed as reduction in IL-1beta production at 10 uM incubated for 16 hrs by ELISA relative to control; type: functional; set-up: scale not given: the % may be the effect or the level left
Staphylococcus aureus = assay: Antibacterial activity against Staphylococcus aureus ATCC 25923 assessed as inhibition of bacterial growth incubated for 24 hrs by broth dilution method; type: functional
Erythrocyte = assay: Hemolytic activity in male Sprague-Dawley rat erythrocytes assessed as concentration required for 10% hemolysis incubated for 1 hr by absorbance based method; type: toxicity, cell-based
Escherichia coli [6] = assay: Induction of lipid peroxidation in Escherichia coli ATCC 25922 at 12.5 uM incubated for 1 hrs by BODIPY 581/591 C11 dye based flow cytometry analysis; type: functional, organism-based
[7] = Hemolytic activity in male Sprague-Dawley rat erythrocytes at 25 uM incubated for 1 hr by absorbance based method relative to control; type: toxicity, cell-based, Erythrocyte; conditions: read-out: Activity
RAW264.7 [8] = assay: Cytotoxicity against mouse RAW264.7 cells assessed as cell killing incubated for 24 hrs by MTS assay; type: toxicity, cell-based; conditions: raw264.7, 24 h
DNA = assay: Binding affinity to pUC19 plasmid DNA (unknown origin) assessed as smearing and retardation of DNA bands at 25 uM incubated for 2 hrs by agarose gel imaging method; type: nucleic-acid assay
Acinetobacter baumannii = assay: Antibacterial activity against carbapenem-resistant Acinetobacter baumannii NMS1707 harboring extended-spectrum beta-lactamase assessed as inhibition of bacterial growth incubated for 24 hrs by broth dilution method; type: functional
Cell membrane [9] = assay: Disruption of inner membrane in Escherichia coli ATCC 25922 assessed as increase in absorbance incubated for 1 hr by ONPG assay; type: cell membranes; conditions: dose 0-25 µM
Lipopolysaccharide (LPS) = assay: Binding affinity to Escherichia coli O111:B4 LPS at 0 to 25 uM BODIPY-TR-cadaverine substitution assay; type: subcellular; conditions: dose 0-25 µM
Escherichia coli [10] = assay: Induction of lipid peroxidation in Escherichia coli ATCC 25922 assessed as increase in MDA level at 10 uM incubated for 2 hrs by TBARS assay; type: functional, organism-based
[11] = Hemolytic activity in male Sprague-Dawley rat erythrocytes at 100 uM incubated for 1 hr by absorbance based method relative to control; type: toxicity, cell-based, Erythrocyte; conditions: read-out: Activity
MRC5 = assay: Cytotoxicity against human MRC5 cells assessed as cell killing incubated for 24 hrs by MTS assay; type: toxicity, cell-based; conditions: mrc5, 24 h
[12] = Cytotoxicity against mouse RAW264.7 cells assessed as cell viability at 20 uM incubated for 24 hrs by […] relative to control; type: toxicity, cell-based; conditions: read-out: Activity
RAW264.7 [13] = assay: Antiinflammatory activity in LPS-stimulated mouse RAW264.7 cells assessed as reduction in TNFalpha production at 10 uM incubated for 16 hrs by ELISA relative to control; type: functional; set-up: scale not given: the % may be the effect or the level left
Escherichia coli [14] = assay: Induction of lipid peroxidation in Escherichia coli ATCC 25922 assessed as increase in green fluorescence at 12.5 uM incubated for 1 hrs by BODIPY 581/591 C11 dye based confocal microscopic analysis; type: functional, organism-based
Escherichia coli [15] = assay: Antibacterial activity against colistin-resistant Escherichia coli NMS12 harboring extended-spectrum beta-lactamase assessed as inhibition of bacterial growth incubated for 24 hrs by broth dilution method; type: functional
[16] = Cytotoxicity against mouse RAW264.7 cells assessed as cell viability at 10 uM incubated for 24 hrs by […] relative to control; type: toxicity, cell-based; conditions: read-out: Activity
Escherichia coli [17] = assay: Antibacterial activity against carbapenem-resistant Escherichia coli NMS11035 harboring extended-spectrum beta-lactamase assessed as inhibition of bacterial growth incubated for 24 hrs by broth dilution method; type: functional
[18] = Hemolytic activity in male Sprague-Dawley rat erythrocytes assessed as concentration required for 50% hemolysis incubated for 1 hr by absorbance based method; type: toxicity, cell-based, Erythrocyte
[19] = Selectivity index, ratio of HC10 for hemolytic activity in male Sprague-Dawley rat erythrocytes to MIC for antibacterial activity against Escherichia coli ATCC 25922; type: toxicity; conditions: read-out: Selectivity Index
HaCaT = assay: Cytotoxicity against human HaCaT cells assessed as cell killing incubated for 24 hrs by MTS assay; type: toxicity, cell-based
Escherichia coli [20] = assay: Antibacterial activity against Escherichia coli ATCC 25922 assessed as inhibition of bacterial growth incubated for 24 hrs by broth dilution method; type: functional
[21] = Cytotoxicity against mouse RAW264.7 cells assessed as cell survival at 5 uM incubated for 24 hrs in presence of nickel by […] relative to control; type: toxicity, cell-based; conditions: read-out: Survival
[22] = Cytotoxicity against mouse L929 cells assessed as reduction in cell survival at 6.3 uM incubated for 24 hrs by WST-8 assay relative to control; type: toxicity, cell-based; conditions: read-out: Survival
[23] = Cytotoxicity against mouse RAW264.7 cells assessed as cell survival at 5 uM incubated for 24 hrs by […] relative to control; type: toxicity, cell-based; conditions: read-out: Survival
[24] = Cytotoxicity against HEK293 cells assessed as reduction in cell survival at 6.3 uM incubated for 24 hrs by WST-8 assay relative to control; type: toxicity, cell-based; conditions: human, read-out: Survival
[25] = Cytotoxicity against mouse RAW264.7 cells assessed as cell survival at 5 uM incubated for 24 hrs in presence of copper by […] relative to control; type: toxicity, cell-based; conditions: read-out: Survival

C[C@@H](c1ccccc1)N(CC(=O)N(CCCCN)CC(=O)N(CCc1c[nH]c2ccccc12)CC(=O)N(CCc1c[nH]c2ccccc12)CC(N)=O)C(=O)CN(CCCCN)C(=O)CN(CCCCN)C(=O)CN(C(=O)CN(C(=O)CN(CCCCN)C(=O)CN(C(=O)CN(C(=O)CNCCCCN)[C@@H](C)c1ccccc1)[C@@H](C)c1ccccc1)[C@@H](C)c1ccccc1)[C@@H](C)c1ccccc1 (H-[Nlys][Nspe][Nspe][Nlys][Nspe][Nspe][Nlys][Nlys][Nspe][Nlys][Gly(N(CH2)2(3-indolyl))][Gly(N(CH2)2(3-indolyl))]-NH2)
hemolysis at 1 h, 50 µM [1]: 7.85% | LC50 (HEK293): 16.3 µM | Activity (RAW264.7 [2]): 88.7% | Activity (RAW264.7 [3]): 99% | Activity (Cell membrane [4]): Dose-Dependent Effect | MIC (Klebsiella pneumoniae): 12.5 µM (≈ 23.3 µg/mL) | Activity (RAW264.7 [5]): 72.9% | MIC (Staphylococcus aureus): 6.3 µM (≈ 11.7 µg/mL) | HC10 (Erythrocyte): > 100 µM | Activity (Escherichia coli [6]): Active | hemolysis at 1 h, 25 µM [7]: 2.72% | LC50 (RAW264.7 [8]): 14.9 µM | Activity (DNA): Active | MIC (Acinetobacter baumannii): 3.1 µM (≈ 5.78 µg/mL) | Activity (Cell membrane [9]): Dose-Dependent Effect | Activity (Lipopolysaccharide (LPS)): Active | Activity (Escherichia coli [10]): Active | hemolysis at 1 h, 100 µM [11]: 6.7% | LC50 (MRC5): 11.8 µM | viability at 24 h, 20 µM [12]: 14.7% | Activity (RAW264.7 [13]): 54.4% | Activity (Escherichia coli [14]): Active | MIC (Escherichia coli [15]): 12.5 µM (≈ 23.3 µg/mL) | viability at 24 h, 10 µM [16]: 55.9% | MIC (Escherichia coli [17]): 6.3 µM (≈ 11.7 µg/mL) | HC50 at 1 h [18]: > 100 µM | selectivity ratio [19]: > 15.8 | LC50 (HaCaT): 18.8 µM | MIC (Escherichia coli [20]): 6.3 µM (≈ 11.7 µg/mL)

CC[C@H](C)[C@H](NC(=O)CN)C(=O)NCC(=O)N[C@@H](C)C(=O)N[C@H](C(=O)N[C@@H](CC(C)C)C(=O)N[C@@H](CCCCN)C(=O)N[C@H](C(=O)N[C@@H](CC(C)C)C(=O)N[C@H](C(=O)N[C@H](C(=O)NCC(=O)N[C@@H](CC(C)C)C(=O)N1CCC[C@H]1C(=O)N[C@@H](C)C(=O)N[C@@H](CC(C)C)C(=O)N[C@H](C(=O)N[C@@H](CO)C(=O)N[C@@H](Cc1c[nH]c2ccccc12)C(=O)N[C@H](C(=O)N[C@@H](CCCCN)C(=O)N[C@@H](CCCNC(=N)N)C(=O)N[C@@H](CCCCN)C(=O)N[C@@H](CCCNC(=N)N)C(=O)N[C@@H](CCC(N)=O)C(=O)N[C@@H](CCC(N)=O)C(N)=O)[C@@H](C)CC)[C@@H](C)CC)[C@@H](C)O)[C@@H](C)O)C(C)C)C(C)C [MELITTIN]
viability at 24 h, 5 µM [21]: < 24.6% | viability at 24 h, 6.3 µM [22]: < 21.5% | viability at 24 h, 5 µM [23]: < 24.6% | viability at 24 h, 6.3 µM [24]: < 21.5% | viability at 24 h, 5 µM [25]: < 24.6%
